Key:
[1] = target: T1, ceQORH (chloroplast envelope quinone oxidoreductase homolog) (Arabidopsis thaliana, UniProt Q9SV68); test: X-ray crystal structure, […] Å, ternary complex with 13-KOTE; type: binding
T1 sequence (Q9SV68 1-329): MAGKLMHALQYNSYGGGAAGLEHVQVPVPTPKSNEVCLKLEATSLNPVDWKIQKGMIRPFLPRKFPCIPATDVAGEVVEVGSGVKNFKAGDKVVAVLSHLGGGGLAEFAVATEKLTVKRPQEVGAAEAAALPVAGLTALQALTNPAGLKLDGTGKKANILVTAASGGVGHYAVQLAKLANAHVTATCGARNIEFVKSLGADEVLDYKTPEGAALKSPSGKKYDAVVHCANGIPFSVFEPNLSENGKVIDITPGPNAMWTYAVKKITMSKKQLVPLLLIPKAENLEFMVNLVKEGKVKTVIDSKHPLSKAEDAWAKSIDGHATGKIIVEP

[2] = target: T1, ceQORH (chloroplast envelope quinone oxidoreductase homolog); test: X-ray crystal structures, […] Å (binary) and […] Å (ternary with NADP+); type: binding
[3] = target: T1, ceQORH (chloroplast envelope quinone oxidoreductase homolog); test: enzyme inhibition kinetics ([…] nm) after […] s preincubation, […] trans-1, […] diphenyl-2-propenone; low-quality crystal structure with NADPH not used; type: biochemical

`NC(=O)c1ccc[n+]([C@@H]2O[C@H](COP(=O)(O)OP(=O)(O)OC[C@H]3O[C@@H](n4cnc5c(N)ncnc54)[C@H](OP(=O)(O)O)[C@@H]3O)[C@@H](O)[C@H]2O)c1` [NADP^+] was tested, and the “X-ray crystal structure, 2.81 Å, ternary complex with 13-KOTE” value [1] was “NADP^+ is bound at the interface of the two domains and the nicotinamide ring is in the vicinity of the catalytic site”.
With `CC/C=C\CC(=O)/C=C/C=C/CCCCCCCC(=O)O` [13-KOTE, 13-oxo-9(Z), 11(E), 15(Z)-octadecatrienoic acid] the “X-ray crystal structures, 2.78 Å (binary) and 2.81 Å (ternary with NADP+)” value [2] was “apo-ceQORH (5A3V), ceQORH-13-KOTE (5A3J), and ceQORH-NADP^+-13-KOTE (5A4D)”.
`CCCCCC(=O)/C=C/C=C\CCCCCCCC(=O)O` [13-KODE, 13-oxo-9(Z),11(E)-octadecadienoic acid] gave an IC50 [3] of 36 µM.

— article PMC5343027, “Crystal Structure of the Chloroplastic Oxoene Reductase ceQORH from Arabidopsis thaliana” (Frontiers in Plant Science, 2017)
